According to ChEMBL document CHEMBL1148042, “Novel bioactive diterpenoids from Aframomum aulacocarpos” (1994):
In brackets after ≈: the same amount, converted by molar mass.

Experiments:
Type in all cases: functional
L1210 = test: Cytotoxicity against mouse L1210 cells; details: read-out: ED50 (the source's name)
Rhizomucor miehei = test: Antifungal activity against Mucor miehei by plate diffusion assay
Bacillus subtilis = test: Antibacterial activity against Bacillus subtilis ATCC 6633 by serial dilution assay

Row | SMILES | EC50 (L1210) [µg/mL] | MIC (Rhizomucor miehei) [µg/mL] | MIC (Bacillus subtilis) [µg/mL]
1 | COC(=O)/C(=C/C[C@H]1[C@]2(CO2)C[C@@H](O)[C@H]2C(C)(C)[C@@H](O)CC[C@@]21C)C1CO1 (stereo partly drawn) [AULACOCARPIN B] | 25 (≈ 65.7 µM) | 50 (≈ 131 µM) | 25 (≈ 65.7 µM)
2 | COC(=O)/C(=C/C[C@H]1[C@@]2(CC[C@H]3C(C)(C)[C@@H](O)CC[C@@]31C)CO2)C1CO1 (stereo partly drawn) [AULACOCARPINE A] | – | 50 (≈ 137 µM) | 25 (≈ 68.6 µM)
3 | CC1(C)[C@@H](O)CC[C@]2(C)C3=C(CC[C@@H]12)CO[C@@H](C1=CCOC1=O)C3 [AULACOCARPINOLIDE] | 12.5 (≈ 37.6 µM) | 50 (≈ 150 µM) | 25 (≈ 75.2 µM)
